Measured values as given in patent publication US7553972B2, “Benzamide inhibitors of the P2X7 receptor” (Pfizer, Inc., priority 2003, dated 2009).

Target: T1, P2X7 receptor (Homo sapiens, UniProt Q99572)
T1 construct: endogenous in cells
T1 sequence (Q99572 1-595): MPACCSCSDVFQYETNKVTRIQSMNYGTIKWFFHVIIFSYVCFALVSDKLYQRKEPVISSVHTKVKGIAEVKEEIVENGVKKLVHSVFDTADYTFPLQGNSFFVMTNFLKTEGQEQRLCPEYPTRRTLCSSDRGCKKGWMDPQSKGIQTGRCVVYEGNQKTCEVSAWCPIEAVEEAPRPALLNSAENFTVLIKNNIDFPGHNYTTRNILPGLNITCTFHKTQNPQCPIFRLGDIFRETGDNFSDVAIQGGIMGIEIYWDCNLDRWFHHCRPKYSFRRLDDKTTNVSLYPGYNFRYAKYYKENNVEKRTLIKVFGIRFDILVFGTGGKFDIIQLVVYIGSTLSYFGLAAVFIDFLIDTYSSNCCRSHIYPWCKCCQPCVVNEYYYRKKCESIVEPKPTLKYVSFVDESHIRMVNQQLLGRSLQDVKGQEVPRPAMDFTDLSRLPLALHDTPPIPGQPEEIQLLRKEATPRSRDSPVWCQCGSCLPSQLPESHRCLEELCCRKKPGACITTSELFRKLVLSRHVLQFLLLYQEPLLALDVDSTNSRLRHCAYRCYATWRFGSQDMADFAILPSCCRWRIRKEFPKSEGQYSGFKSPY
Assay: Inhibition of ATP-stimulated IL-1β release from LPS-activated blood monocytes (P2X7 antagonist activity, ELISA readout)
Format: cell-based
Conditions: monocytes from normal volunteers, 10 ng/ml LPS 2 h, compound 30 min, 2 mM ATP 3 h, IL-1β by ELISA, triplicate wells; read-out: IC50 (inhibit 50% of the stimulation of the release of IL-1β from monocytes by ATP)
Description: In like manner, the compounds of the invention can be tested for antagonist activity at the P2X7 receptor using the cytokine IL-1β as the readout. Blood collected from normal volunteers in the presence of heparin is fractionated using lymphocyte separation medium obtained from Organon Technica (Westchester, Pa.). […] The resulting cell pellet was suspended in 10 ml of Maintenance Medium and a cell count was performed. In an average experiment, 2×10^5 mononuclear cells are seeded into each well of 96-well plates in a total volume of 0.1 ml. Monocytes are allowed to adhere for 2 hours, after which the supernatants are discarded and the attached cells are rinsed twice and then incubated in Maintenance Medium overnight at 37° C. in a 5% CO2 environment.
(§1) The cultured monocytes can be activated with 10 ng/ml LPS (E. coli serotype 055:B5; Sigma Chemicals, St. Louis, Mo.). […] ATP then is introduced (from a 100 mM stock solution, pH 7) to achieve a final concentration of 2 mM and the plate is incubated at 37° C. for an additional 3 hours. Media were harvested and clarified by centrifugation, and their IL-1[…] content was determined by ELISA (R&D Systems; Minneapolis, Minn.).
Blood was collected from normal volunteers in the presence of heparin, and was fractionated using lymphocyte separation medium obtained from Organon Technica (Westchester, Pa.). […] The resulting cell pellet was suspended in 10 ml of Maintenance Medium and a cell count was performed. Approximately, 2×10^5 mononuclear cells were seeded into each well of 96-well plates in a total volume of 0.1 ml. Monocytes were allowed to adhere for 2 hours, after which the supernatants were discarded and the attached cells were rinsed twice and then incubated in Maintenance Medium overnight at 37° C. in a 5% CO2 environment.
as §1, with “monocytes were” for “monocytes can be”, “then was” for “then is”, “plate was” for “plate is”, “their IL-1β” for “their IL-1[…]”

IC50 [µM] | SMILES
0.022 | Cc1cc(-c2ccc(Cl)c(C(=O)NCC3(O)CCCCCC3)c2)nn1CC(=O)N1CCCC1 [Example 46, 2-Chloro-N-(1-hydroxy-cycloheptylmethyl)-5-[5-methyl-1-(2-oxo-2-pyrrolidin-1-yl-ethyl)-1H-pyrazol-3-yl]-benzamide]
0.005 | Cc1cc(-c2ccc(Cl)c(C(=O)NCC3(O)CCCCCC3)c2)nn1CC(=O)NC(CO)CO [Example 50, 2-Chloro-N-(1-hydroxy-cycloheptylmethyl)-5-{1-[(2-hydroxy-1-hydroxymethyl-ethylcarbamoyl)-methyl]-5-methyl-1H-pyrazol-3-yl}-benzamide]
0.93 | O=C(NCC1(O)CCCCCC1)c1cc(-c2ccc(=O)[nH]n2)ccc1Cl [Example 5, 2-Chloro-N-(1-hydroxy-cycloheptylmethyl)-5-(6-oxo-1,6-dihydro-pyridazin-3-yl)-benzamide]
0.242 | Cn1ccc(-c2ccc(Cl)c(C(=O)NCC3(O)CCCCCC3)c2)n1 [Example 29, 2-Chloro-N-(1-hydroxy-cycloheptylmethyl)-5-(1-methyl-1H-pyrazol-3-yl)-benzamide]
0.2 | O=C(NCC1(O)CCCCCC1)c1cc(-c2cc(C(F)(F)F)n[nH]2)ccc1Cl [Example 23, 2-Chloro-N-(1-hydroxy-cycloheptylmethyl)-5-(5-trifluoromethyl-1H-pyrazol-3-yl)-benzamide]
1.4 | COc1ccc(Cn2cc(-c3ccc(Cl)c(C(=O)NCCc4ccccc4Cl)c3)cn2)cc1 [Example 6, 2-Chloro-N-[2-(2-chloro-phenyl)-ethyl]-5-[1-(4-methoxy-benzyl)-1H-pyrazol-4-yl]-benzamide]
0.005 | CNC(=O)CNC(=O)Cn1nc(-c2ccc(Cl)c(C(=O)NCC3(O)CCCCCC3)c2)cc1C [Example 49, 2-Chloro-N-(1-hydroxy-cycloheptylmethyl)-5-{5-methyl-1-[(methylcarbamoylmethyl-carbamoyl)-methyl]-1H-pyrazol-3-yl}-benzamide]
0.525 | COc1ccc(-c2ccc(Cl)c(C(=O)NCCc3ccccc3Cl)c2)nn1 [Example 8, 2-Chloro-N-[2-(2-chloro-phenyl)-ethyl]-5-(6-methoxy-pyridazin-3-yl)-benzamide]
0.008 | Cc1cc(-c2ccc(Cl)c(C(=O)NCC3(O)CCCCCC3)c2)nn1CC(=O)Nc1ncccn1 [Example 52, 2-Chloro-N-(1-hydroxy-cycloheptylmethyl)-5-[5-methyl-1-(pyrimidin-2-ylcarbamoylmethyl)-1H-pyrazol-3-yl]-benzamide]
0.13 | Cc1cc(-c2ccc(Cl)c(C(=O)NCC3(O)CCCCCC3)c2)n(C[C@@H](O)CO)n1 [Example 43, 2-Chloro-5-[2-(2,3-dihydroxy-propyl)-5-methyl-2H-pyrazol-3-yl]-N-(1-hydroxy-cycloheptylmethyl)-benzamide]
0.011 | Cc1ccc(-c2ccc(Cl)c(C(=O)NCC3(O)CCCC(C)(C)C3)c2)nc1 (stereo not shown) [Example 2, 2-Chloro-N-(1-hydroxy-3,3-dimethyl-cyclohexylmethyl)-5-(5-methyl-pyridin-2-yl)-benzamide]
0.038 | NCCn1ccc(-c2ccc(Cl)c(C(=O)NCC3(O)CCCCCC3)c2)n1 [Example 32, 5-[1-(2-Amino-ethyl)-1H-pyrazol-3-yl]-2-chloro-N-(1-hydroxy-cycloheptylmethyl)-benzamide]
0.365 | Cc1cc(-c2ccc(Cl)c(C(=O)NCC3(O)CCCCCC3)c2)n(C[C@@H](O)CN)n1 [Example 55, 5-[2-(3-Amino-2-hydroxy-propyl)-5-methyl-2H-pyrazol-3-yl]-2-chloro-N-(1-hydroxy-cycloheptylmethyl)-benzamide]
0.018 | Cc1cc(-c2ccc(Cl)c(C(=O)NCC3(O)CCCCCC3)c2)nn1CC(N)=O [Example 37, 5-(1-Carbamoylmethyl-5-methyl-1H-pyrazol-3-yl)-2-chloro-N-(1-hydroxy-cycloheptylmethyl)-benzamide]
0.006 | Cc1cc(-c2ccc(Cl)c(C(=O)NCC3(O)CCCCCC3)c2)nn1C[C@@](C)(O)CO [Example 45, 2-Chloro-5-[1-(2,3-dihydroxy-2-methyl-propyl)-5-methyl-1H-pyrazol-3-yl]-N-(1-hydroxy-cycloheptylmethyl)-benzamide]
0.0155 | Cc1cc(-c2ccc(Cl)c(C(=O)NCC3(O)CCCCCC3)c2)nn1CC(=O)N1C[C@H](O)[C@@H](O)C1 [Example 53, 2-Chloro-5-{1-[2-(3,4-dihydroxy-pyrrolidin-1-yl)-2-oxo-ethyl]-5-methyl-1H-pyrazol-3-yl}-N-(1-hydroxy-cycloheptylmethyl)-benzamide]
0.8 | O=C(NCCc1ccccc1Cl)c1cc(-c2cn[nH]c2)ccc1Cl [Example 10, 2-Chloro-N-[2-(2-chloro-phenyl)-ethyl]-5-(1H-pyrazol-4-yl)-benzamide]
0.373 | O=C(NCC1(O)CCCCCC1)c1cc(-c2ccnn2CCO)ccc1Cl [Example 26, 2-Chloro-N-(1-hydroxy-cycloheptylmethyl)-5-[2-(2-hydroxy-ethyl)-2H-pyrazol-3-yl]-benzamide]
0.28 | COc1ccc(-c2ccc(Cl)c(C(=O)NCC3(O)CCCCCC3)c2)nn1 [Example 4, 2-Chloro-N-(1-hydroxy-cycloheptylmethyl)-5-(6-methoxy-pyridazin-3-yl)-benzamide]
0.051 | Cc1cc(-c2ccc(Cl)c(C(=O)NCC3(O)CCCCCC3)c2)nn1CC#N [Example 36, 2-Chloro-5-(1-cyanomethyl-5-methyl-1H-pyrazol-3-yl)-N-(1-hydroxy-cycloheptylmethyl)-benzamide]
0.0105 | CCC(CO)NC(=O)Cn1nc(-c2ccc(Cl)c(C(=O)NCC3(O)CCCCCC3)c2)cc1C (stereo not shown) [Example 48, 2-Chloro-N-(1-hydroxy-cycloheptylmethyl)-5-{1-[(1-hydroxymethyl-propylcarbamoyl)-methyl]-5-methyl-1H-pyrazol-3-yl}-benzamide]
1.66 | Cc1ccc(-c2ccc(Cl)c(C(=O)NCCc3ccccc3Cl)c2)nc1 [Example 7, 2-Chloro-N-[2-(2-chloro-phenyl)-ethyl]-5-(5-methyl-pyridin-2-yl)-benzamide]
